Measurements from the NIST ThermoML archive (doi:10.1016/j.fluid.2017.10.034).
± gives the expanded uncertainty stated by the source.

Assay: xn = mol fraction of the nth substance listed
Settings: Liquid, Vibrating tube method

[Cl-].[Cs+] [cesium chloride] + O
mass density [kg/m3]
Settings	x1 = 0.0099	x1 = 0.0196	x1 = 0.0292	x1 = 0.0385	x1 = 0.0536	x1 = 0.069
288.15 K	1069.7 ± 1.4	1137.3 ± 2.8	1203.3 ± 2.7	1266.2 ± 4	1367 ± 9.2	1466.9 ± 12
293.15 K	1068.4 ± 1.4	1135.8 ± 2.8	1201.6 ± 2.7	1264.2 ± 4	1364.6 ± 9.2	1464.1 ± 12
298.15 K	1067 ± 1.4	1134.1 ± 2.8	1199.6 ± 2.7	1262 ± 4	1362.1 ± 9.2	1461.3 ± 12
308.15 K	1063.5 ± 1.4	1130.1 ± 2.7	1195.2 ± 2.7	1257.3 ± 4	1356.7 ± 9.1	1455.3 ± 12
318.15 K	1059.2 ± 1.4	1125.5 ± 2.7	1190.2 ± 2.7	1252 ± 4	1350.9 ± 9	1448.6 ± 11

[Cl-].[Na+] [sodium chloride] + CO
mass density [kg/m3]
Settings	x1 = 0.001	x1 = 0.002	x1 = 0.003	x1 = 0.004	x1 = 0.005	x1 = 0.006	x1 = 0.007
288.15 K	797.4 ± 0.4	798.9 ± 0.4	800.1 ± 0.4	801.4 ± 0.4	802.9 ± 0.4	804.1 ± 0.4	805.7 ± 0.4
293.15 K	792.7 ± 0.4	794.3 ± 0.4	795.5 ± 0.4	796.8 ± 0.4	798.3 ± 0.4	799.5 ± 0.4	801.1 ± 0.4
298.15 K	788 ± 0.4	789.6 ± 0.4	790.8 ± 0.4	792.1 ± 0.4	793.7 ± 0.4	794.9 ± 0.4	796.4 ± 0.4
308.15 K	778.6 ± 0.4	780.2 ± 0.4	781.4 ± 0.4	782.7 ± 0.4	784.3 ± 0.4	785.5 ± 0.4	787.1 ± 0.4
318.15 K	769 ± 0.5	770.7 ± 0.4	771.9 ± 0.4	773.3 ± 0.4	774.8 ± 0.4	776.1 ± 0.4	777.7 ± 0.4

[Cl-].[Na+] [sodium chloride] + O
mass density [kg/m3]
Settings	x1 = 0.0099	x1 = 0.0196	x1 = 0.0291	x1 = 0.0385	x1 = 0.0476	x1 = 0.0566	x1 = 0.0654
288.15 K	1022.2 ± 0.5	1044.7 ± 0.9	1065.8 ± 0.9	1086.7 ± 1.4	1107.4 ± 1.4	1127.2 ± 1.8	1147.1 ± 1.8
293.15 K	1021 ± 0.5	1043.2 ± 0.9	1064.1 ± 0.9	1084.8 ± 1.4	1105.4 ± 1.4	1125 ± 1.8	1144.8 ± 1.8
298.15 K	–	1041.6 ± 0.9	1062.3 ± 0.9	1082.8 ± 1.3	1103.3 ± 1.3	1122.7 ± 1.8	1142.4 ± 1.8
308.15 K	1016.2 ± 0.5	1037.8 ± 0.9	1058.2 ± 0.9	1078.5 ± 1.3	1098.7 ± 1.3	1118 ± 1.8	1137.4 ± 1.8
318.15 K	1012.1 ± 0.5	1033.5 ± 0.9	1053.6 ± 0.9	1073.7 ± 1.3	1093.8 ± 1.3	1112.9 ± 1.7	1132.2 ± 1.8

[Cl-].[Cs+] [cesium chloride] + CO
mass density [kg/m3]
Settings	288.15 K	293.15 K	298.15 K	308.15 K	318.15 K
x1 = 0.0012	800.8 ± 0.8	796.1 ± 0.8	791.3 ± 0.8	781.8 ± 0.8	772.3 ± 0.8
x1 = 0.0025	805.5 ± 0.8	800.8 ± 0.8	796 ± 0.8	786.5 ± 0.8	776.9 ± 0.8
x1 = 0.0037	809.9 ± 0.8	805.2 ± 0.8	800.5 ± 0.8	791 ± 0.8	781.4 ± 0.8
x1 = 0.0049	814.5 ± 0.8	809.8 ± 0.8	805.1 ± 0.8	795.5 ± 0.8	785.9 ± 0.8
